Data as given in ChEMBL document CHEMBL3352178, “Antidepressant- and anxiolytic-like activity of 7-phenylpiperazinylalkyl-1,3-dimethyl-purine-2,6-dione derivatives with diversified 5-HT₁A receptor functional profile” (Bioorg Med Chem, 2015).
pKi: −log10 of the molar value. Calls of active or inactive are those of the source. No cut-off for these calls is given here.

Experiments:
[1] = system: Rattus norvegicus; test: Induction of lower lip retraction in rat assessed as lower lip retraction scores at 1 mg/kg, ip dosed 15 mins before test; assay type: functional; conditions: route intraperitoneal
[2] = system: Mus musculus; test: Induction of hypothermia in mouse assessed as change in body temperature at 10 mg/kg, ip administered 30 mins before test and measured 90 mins post dose; assay type: functional, organism-based; design: dose 10 mg/kg
[3] = system: Mus musculus; test: Induction of hypothermia in mouse assessed as change in body temperature at 2.5 mg/kg, ip administered 30 mins before test and measured 90 mins post dose; assay type: functional, organism-based; design: dose 2.5 mg/kg
[4] = target: 5-hydroxytryptamine receptor 2A (Rattus norvegicus, UniProt P14842); test: Displacement of [3H]-ketanserin from 5-HT2AR in rat cortex
Sequence of 5-hydroxytryptamine receptor 2A (P14842 whole entry): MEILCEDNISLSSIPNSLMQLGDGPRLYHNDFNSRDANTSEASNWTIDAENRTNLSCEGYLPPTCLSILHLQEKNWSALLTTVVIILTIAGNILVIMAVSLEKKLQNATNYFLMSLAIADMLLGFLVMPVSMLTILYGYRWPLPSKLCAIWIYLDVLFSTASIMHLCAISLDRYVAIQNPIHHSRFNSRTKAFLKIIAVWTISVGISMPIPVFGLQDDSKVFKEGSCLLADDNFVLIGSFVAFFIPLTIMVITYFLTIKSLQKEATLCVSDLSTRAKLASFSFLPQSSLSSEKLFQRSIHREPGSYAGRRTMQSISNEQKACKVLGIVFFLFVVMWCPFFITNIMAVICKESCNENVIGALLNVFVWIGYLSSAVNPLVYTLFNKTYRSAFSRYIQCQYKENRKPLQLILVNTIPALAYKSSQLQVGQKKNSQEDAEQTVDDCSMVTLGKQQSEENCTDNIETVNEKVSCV

[5] = system: Rattus norvegicus; test: Induction of lower lip retraction in rat assessed as lower lip retraction scores at 0.5 mg/kg, ip dosed 15 mins before test; assay type: functional; conditions: route intraperitoneal
[6] = target: T1, 5-hydroxytryptamine receptor 1A (Rattus norvegicus, UniProt P19327); test: Displacement of [3H]-8-OH-DPAT from 5-HT1AR in rat hippocampus; assay type: tissue-based
T1 sequence (P19327 whole entry): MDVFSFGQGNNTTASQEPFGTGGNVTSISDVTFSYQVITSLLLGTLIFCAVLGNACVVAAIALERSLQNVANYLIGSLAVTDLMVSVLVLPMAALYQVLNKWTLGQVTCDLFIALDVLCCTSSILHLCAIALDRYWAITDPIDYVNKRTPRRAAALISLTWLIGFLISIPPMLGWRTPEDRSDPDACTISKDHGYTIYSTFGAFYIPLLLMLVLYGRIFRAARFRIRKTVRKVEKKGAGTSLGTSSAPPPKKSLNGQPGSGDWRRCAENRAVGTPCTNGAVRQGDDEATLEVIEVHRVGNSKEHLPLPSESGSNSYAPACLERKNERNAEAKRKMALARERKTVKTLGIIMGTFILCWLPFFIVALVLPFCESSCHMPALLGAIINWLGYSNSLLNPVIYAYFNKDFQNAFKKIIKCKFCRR

[7] = system: Mus musculus; test: Induction of hypothermia in mouse assessed as change in body temperature at 10 mg/kg, ip administered 30 mins before test and measured 30 mins post dose; assay type: functional, organism-based; design: dose 10 mg/kg
[8] = system: Mus musculus; test: Effect on spontaneous locomotor activity in mouse at 20 mg/kg, ip; assay type: ADME, organism-based; design: dose 20 mg/kg, route intraperitoneal; conditions: in vivo
[9] = target: 5-hydroxytryptamine receptor 7 (Homo sapiens, UniProt P34969); test: Displacement of [3H]]-5-CT from human cloned 5-HT7R expressed in HEK293 cells; assay type: cell-based
Sequence of 5-hydroxytryptamine receptor 7 (P34969 whole entry): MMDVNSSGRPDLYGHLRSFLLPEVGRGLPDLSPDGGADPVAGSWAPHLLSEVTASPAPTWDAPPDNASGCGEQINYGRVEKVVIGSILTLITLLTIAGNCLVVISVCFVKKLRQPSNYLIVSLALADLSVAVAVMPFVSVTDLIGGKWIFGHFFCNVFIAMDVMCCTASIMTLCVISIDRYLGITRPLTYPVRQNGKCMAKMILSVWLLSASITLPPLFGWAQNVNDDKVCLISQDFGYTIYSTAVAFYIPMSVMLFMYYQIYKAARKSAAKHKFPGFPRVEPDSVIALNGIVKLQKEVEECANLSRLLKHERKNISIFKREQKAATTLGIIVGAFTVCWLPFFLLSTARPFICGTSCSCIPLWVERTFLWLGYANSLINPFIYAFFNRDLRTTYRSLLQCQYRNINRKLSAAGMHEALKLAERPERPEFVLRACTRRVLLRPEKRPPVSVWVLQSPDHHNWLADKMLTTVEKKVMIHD

[10] = system: Rattus norvegicus; test: Induction of lower lip retraction in rat assessed as lower lip retraction scores at 1 mg/kg, ip dosed 45 mins after 0.3 mg/kg, sc 5HT1A receptor antagonist WAY 100635; assay type: functional
[11] = system: Mus musculus; test: Inhibition of (+/-)-DOI-induced head twitch response in mouse assessed as head twitches per 20 mins at 20 mg/kg, ip dosed 60 mins before (+/-)-DOI injection (reference value: 21.6 +/- 3.4/20 mins); assay type: functional; conditions: route intraperitoneal
[12] = system: Mus musculus; test: Induction of hypothermia in mouse assessed as change in body temperature at 2.5 mg/kg, ip administered 30 mins before test and measured 60 mins post dose in presence of 0.3 mg/kg, sc 5HT1A receptor antagonist WAY 100635; assay type: functional, organism-based
[13] = system: Mus musculus; test: Induction of hypothermia in mouse assessed as change in body temperature at 5 mg/kg, ip administered 30 mins before test and measured 30 mins post dose; assay type: functional, organism-based; design: dose 5 mg/kg
[14] = system: Mus musculus; test: Anxiolytic-like activity in mouse assessed as increase in number of punished crossings at 20 mg/kg, ip dosed 60 mins before test by four plate test; assay type: functional; conditions: route intraperitoneal
[15] = system: Mus musculus; test: Induction of hypothermia in mouse assessed as change in body temperature at 5 mg/kg, ip administered 30 mins before test and measured 30 mins post dose in presence of 0.3 mg/kg, sc 5HT1A receptor antagonist WAY 100635; assay type: functional, organism-based
[16] = system: Mus musculus; test: Induction of hypothermia in mouse assessed as change in body temperature at 5 mg/kg, ip administered 30 mins before test and measured 60 mins post dose; assay type: functional, organism-based; design: dose 5 mg/kg
[17] = target: D(2) dopamine receptor (Rattus norvegicus, UniProt P61169); test: Displacement of [3H]-spiperone from dopamine D2 receptor in rat striatum
Sequence of D(2) dopamine receptor (P61169 whole entry): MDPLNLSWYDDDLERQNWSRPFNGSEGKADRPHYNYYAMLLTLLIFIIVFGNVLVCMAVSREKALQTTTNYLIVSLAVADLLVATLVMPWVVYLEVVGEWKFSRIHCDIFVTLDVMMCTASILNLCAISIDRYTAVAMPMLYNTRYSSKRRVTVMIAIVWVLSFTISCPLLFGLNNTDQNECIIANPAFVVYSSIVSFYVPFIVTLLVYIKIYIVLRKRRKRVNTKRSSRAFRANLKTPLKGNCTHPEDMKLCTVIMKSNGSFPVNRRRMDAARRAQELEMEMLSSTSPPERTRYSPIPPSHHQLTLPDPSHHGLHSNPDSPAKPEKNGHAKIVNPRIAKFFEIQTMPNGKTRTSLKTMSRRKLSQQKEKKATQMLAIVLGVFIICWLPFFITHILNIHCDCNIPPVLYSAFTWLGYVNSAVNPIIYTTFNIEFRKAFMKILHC

[18] = system: Mus musculus; test: Antidepressant-like activity in mouse assessed as reduction in immobility time at 10 mg/kg, ip dosed 60 mins before test by forced swim test; assay type: functional; design: scale not given: the % may be the effect or the level left; conditions: route intraperitoneal
[19] = system: Mus musculus; test: Induction of hypothermia in mouse assessed as change in body temperature at 2.5 mg/kg, ip administered 30 mins before test and measured 30 mins post dose; assay type: functional, organism-based; design: dose 2.5 mg/kg
[20] = system: Mus musculus; test: Induction of hypothermia in mouse assessed as change in body temperature at 2.5 mg/kg, ip administered 30 mins before test and measured 30 mins post dose in presence of 0.3 mg/kg, sc 5HT1A receptor antagonist WAY 100635; assay type: functional, organism-based
[21] = system: Mus musculus; test: Effect on spontaneous locomotor activity in ip dosed mouse during 2 to 6 mins; assay type: ADME, organism-based; conditions: in vivo
[22] = system: Mus musculus; test: Inhibition of (+/-)-DOI-induced head twitch response in mouse assessed as head twitches per 20 mins at 10 mg/kg, ip dosed 60 mins before (+/-)-DOI injection (reference value: 21.6 +/- 3.4/20 mins); assay type: functional; conditions: route intraperitoneal
[23] = system: Mus musculus; test: Induction of hypothermia in mouse assessed as change in body temperature at 10 mg/kg, ip administered 30 mins before test and measured 120 mins post dose; assay type: functional, organism-based; design: dose 10 mg/kg
[24] = target: 5-hydroxytryptamine receptor 6 (Homo sapiens, UniProt P50406); test: Displacement of [3H]LSD from human cloned 5-HT6R expressed in HEK293 cells; assay type: cell-based
Sequence of 5-hydroxytryptamine receptor 6 (P50406 whole entry): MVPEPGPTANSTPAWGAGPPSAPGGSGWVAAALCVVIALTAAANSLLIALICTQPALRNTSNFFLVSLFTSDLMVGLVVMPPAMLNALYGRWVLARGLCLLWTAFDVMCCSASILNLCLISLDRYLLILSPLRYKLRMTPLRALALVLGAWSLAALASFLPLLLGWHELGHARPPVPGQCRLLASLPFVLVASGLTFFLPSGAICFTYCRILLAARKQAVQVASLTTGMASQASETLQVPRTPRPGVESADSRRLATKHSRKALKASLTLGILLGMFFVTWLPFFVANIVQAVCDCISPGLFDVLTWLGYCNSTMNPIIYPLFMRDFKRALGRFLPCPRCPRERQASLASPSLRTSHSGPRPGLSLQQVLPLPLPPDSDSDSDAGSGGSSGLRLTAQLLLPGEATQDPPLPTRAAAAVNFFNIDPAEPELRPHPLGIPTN

[25] = system: Mus musculus; test: Induction of hypothermia in mouse assessed as change in body temperature at 5 mg/kg, ip administered 30 mins before test and measured 120 mins post dose; assay type: functional, organism-based; design: dose 5 mg/kg
[26] = system: Mus musculus; test: Induction of hypothermia in mouse assessed as change in body temperature at 2.5 mg/kg, ip administered 30 mins before test and measured 120 mins post dose; assay type: functional, organism-based; design: dose 2.5 mg/kg
[27] = system: Mus musculus; test: Inhibition of (+/-)-DOI-induced head twitch response in mouse assessed as head twitches per 20 mins at 5 mg/kg, ip dosed 60 mins before (+/-)-DOI injection (reference value: 21.6 +/- 3.4/20 mins); assay type: functional; conditions: route intraperitoneal
[28] = system: Mus musculus; test: Induction of hypothermia in mouse assessed as change in body temperature at 2.5 mg/kg, ip administered 30 mins before test and measured 60 mins post dose; assay type: functional, organism-based; design: dose 2.5 mg/kg
[29] = system: Mus musculus; test: Antidepressant-like activity in mouse assessed as reduction in immobility time at 5 mg/kg, ip dosed 60 mins before test in presence of 0.3 mg/kg, sc 5HT1A receptor antagonist WAY 100635 by forced swim test; assay type: functional, organism-based
[30] = system: Mus musculus; test: Induction of hypothermia in mouse assessed as change in body temperature at 10 mg/kg, ip administered 30 mins before test and measured 60 mins post dose; assay type: functional, organism-based; design: dose 10 mg/kg
[31] = system: Mus musculus; test: Anxiolytic-like activity in mouse assessed as increase in number of punished crossings at 20 mg/kg, ip dosed 60 mins before test in presence of 0.3 mg/kg, sc 5HT1A receptor antagonist WAY 100635 by four plate test; assay type: functional, organism-based
[32] = system: Mus musculus; test: Inhibition of (+/-)-DOI-induced head twitch response in mouse assessed as head twitches per 20 mins at 2.5 mg/kg, ip dosed 60 mins before (+/-)-DOI injection (reference value: 21.6 +/- 3.4/20 mins); assay type: functional; conditions: route intraperitoneal
[33] = system: Mus musculus; test: Antidepressant-like activity in mouse assessed as reduction in immobility time at 5 mg/kg, ip dosed 60 mins before test by forced swim test; assay type: functional; design: scale not given: the % may be the effect or the level left; conditions: route intraperitoneal
[34] = system: Mus musculus; test: Induction of hypothermia in mouse assessed as change in body temperature at 5 mg/kg, ip administered 30 mins before test and measured 90 mins post dose; assay type: functional, organism-based; design: dose 5 mg/kg
[35] = system: Mus musculus; test: Inhibition of (+/-)-DOI-induced head twitch response in mouse dosed intraperitoneally 60 mins before (+/-)-DOI injection; assay type: functional
[36] = system: Mus musculus; test: Induction of hypothermia in mouse assessed as change in body temperature at 5 mg/kg, ip administered 30 mins before test and measured 60 mins post dose in presence of 0.3 mg/kg, sc 5HT1A receptor antagonist WAY 100635; assay type: functional, organism-based

- pKi [4]: 6.99
- pKi [6]: 9.00
- pKi [9]: 6.32
- pKi [17]: 6.71
- pKi [24]: 5.29
SMILES: Cl.Cn1c(=O)c2c(ncn2CCCCN2CCN(c3cccc(Cl)c3)CC2)n(C)c1=O
- Activity [1]: 1.5
- deltaT [2]: -1.3 °C
- deltaT [3]: -0.1 °C
- Activity [5]: 0.3
- deltaT [7]: -2 °C
- Activity [8]: Non-toxic
- Activity [10]: 0.1
- Activity [11]: 3.2
- deltaT [12]: -0.2 °C
- deltaT [13]: -2.1 °C
- Activity [14]: 57%
- deltaT [15]: -1.5 °C
- deltaT [16]: -1.1 °C
- Activity [18]: 30%
- deltaT [19]: -1.8 °C
- deltaT [20]: -0.8 °C
- Activity [21]: Non-toxic
- Activity [22]: 3.8
- deltaT [23]: 0.8 °C
- deltaT [25]: -0.2 °C
- deltaT [26]: 0 °C
- Activity [27]: 7.7
- deltaT [28]: -0.8 °C
- Activity [29]: inactive
- deltaT [30]: -1.7 °C
- Activity [31]: inactive
- Activity [32]: 11
- Activity [33]: 37%
- deltaT [34]: -0.6 °C
- inhibition [35]: Dose-dependent effect
- ED50 ([35]; ip, read-out: ID50 (the source's name)): 5.09 mg/kg
- deltaT [36]: -0.6 °C
